This is an account of results in publication PMC9151520 (Archives of Toxicology, 2022).

Test [1] relates to p53 signaling (p53RE-bla HCT-116 cells). Kind of test: cells. The format is cell-based.
Test [2] has the same test system.
Test [3] shares this test system. This is another data set of the same source.
Test [4] has as its system p53RE-bla HCT-116 cells.
Where [5] appears, read: Homo sapiens, HCT-116, read-out: p53 activation EC50, cherry pick confirmation.
[6] abbreviates: Homo sapiens, HCT-116, read-out: p53 activation EC50, primary screening.
The mark [7] stands for this setting: Homo sapiens, HCT-116, read-out: p53 activation efficacy, cherry pick confirmation.
[8] abbreviates: Homo sapiens, HCT-116, read-out: p53 activation efficacy, primary screening.
The mark [9] stands for this setting: read-out: p53 activation EC50, cherry pick confirmation.
Where [10] appears, read: read-out: p53 activation EC50, primary screening.

Where a name gives a salt, the structure may show the parent alone. Read-outs that look alike come from different tables or passages of the source.

In general, EC50 refers to the concentration giving half of the maximal effect.

Regarding `COC(=O)Nc1nc2ccccc2[nH]1` [Carbendazim], the EC50 in test [1] (setting [5]) came to 11.9 µM. Also, the EC50 in test [1] (setting [6]) amounted to 10.3 µM. Also, in test [1] (setting [7]), the Emax was found to be 62.2%. In test [1] (setting [8]), the Emax amounted to 67%. In addition, in test [2], the “p53 activation EC50, cherry pick confirmation” value was “inactive”; the “p53 activation EC50, primary screening” value is “inactive”; the “p53 activation efficacy, cherry pick confirmation” value was “inactive”; the “p53 activation efficacy, primary screening” value was “inactive”. Moreover, in test [3], the “p53 activation EC50, cherry pick confirmation” value was “inactive”; the “p53 activation EC50, primary screening” value is “inactive”; the “p53 activation efficacy, cherry pick confirmation” value is “inactive”; the “p53 activation efficacy, primary screening” value is “inactive”. Besides, in test [4], the “Viability EC50, cherry pick confirmation” value is “inactive”; the “Viability EC50, primary screening” value is “inactive”; the “Viability efficacy, cherry pick confirmation” value was “inactive”; the “Viability efficacy, primary screening” value was “inactive”.
For `CC(=O)O[C@@H]1C(=O)O[C@H]2[C@@H]1OC(=O)[C@@H]2OC(C)=O` [Aceglatone], in test [1], the “EC50, p53 activation, cherry pick confirmation” value was “inactive” and the “Efficacy, p53 activation, cherry pick confirmation” value is “inactive”. Also, the half-maximal effective concentration (EC50) in test [1] (Homo sapiens, HCT-116, read-out: EC50, p53 activation, primary screening) was determined as 21.5 µM. Also, in test [1] (Homo sapiens, HCT-116, read-out: Efficacy, p53 activation, primary screening), the Emax is 37.3%. For the same compound, in test [2], the “EC50, p53 activation, cherry pick confirmation” value was “inactive”; the “EC50, p53 activation, primary screening” value was “inactive”; the “Efficacy, p53 activation, cherry pick confirmation” value was “inactive”; the “Efficacy, p53 activation, primary screening” value was “inactive”. Besides, in test [3], the “EC50, p53 activation, cherry pick confirmation” value was “inactive”; the “EC50, p53 activation, primary screening” value is “inactive”; the “Efficacy, p53 activation, cherry pick confirmation” value was “inactive”; the “Efficacy, p53 activation, primary screening” value was “inactive”. Besides, in test [4], the “EC50, viability, cherry pick confirmation” value was “inactive”; the “EC50, viability, primary screening” value is “inactive”; the “Efficacy, viability, cherry pick confirmation” value is “inactive”; the “Efficacy, viability, primary screening” value was “inactive”.
Consider `CN(C)c1ccc(C(=N)c2ccc(N(C)C)cc2)cc1` [Auramine hydrochloride], for which, in test [1], the “p53 activation EC50, cherry pick confirmation” value is “inactive” and the “p53 activation efficacy, cherry pick confirmation” value was “inactive”. The half-maximal effective concentration (EC50) in test [1] (setting [6]) was determined as 3.94 µM. Moreover, the Emax in test [1] (setting [8]) was 37.6%. Also, in test [2], the “p53 activation EC50, cherry pick confirmation” value is “inactive”; the “p53 activation EC50, primary screening” value was “inactive”; the “p53 activation efficacy, cherry pick confirmation” value was “inactive”; the “p53 activation efficacy, primary screening” value was “inactive”. Also, in test [3], the “p53 activation EC50, cherry pick confirmation” value is “inactive”; the “p53 activation EC50, primary screening” value is “inactive”; the “p53 activation efficacy, cherry pick confirmation” value is “inactive”; the “p53 activation efficacy, primary screening” value was “inactive”. In test [4], the “Viability EC50, cherry pick confirmation” value is “inactive”; the “Viability EC50, primary screening” value was “inactive”; the “Viability efficacy, cherry pick confirmation” value was “inactive”; the “Viability efficacy, primary screening” value was “inactive”.
In the case of Demeton, in test [1], the “p53 activation EC50, cherry pick confirmation” value was “inactive”; the “p53 activation EC50, primary screening” value was “inactive”; the “p53 activation efficacy, cherry pick confirmation” value is “inactive”; the “p53 activation efficacy, primary screening” value was “inactive”. This compound also came in with an EC50 in test [2] of 1.91 µM. Also, the EC50 in test [2] (setting [9]) was 1.7 µM. The “p53 activation EC50, cherry pick confirmation” value in test [3] is “inactive”. In test [4], the “Viability EC50, cherry pick confirmation” value was “inactive”; the “Viability EC50, primary screening” value was “inactive”; the “Viability efficacy, cherry pick confirmation” value was “inactive”; the “Viability efficacy, primary screening” value was “inactive”.
Regarding `O=C(O)c1c(O)c(-c2ccccc2)nc2ccccc12` [Oxycinchophen], the EC50 in test [1] (setting [5]) is 23.1 µM. The EC50 in test [1] (setting [6]) was 16.6 µM. In test [1] (setting [7]), the Emax was determined as 87.1%. Besides, the Emax in test [1] (setting [8]) came to 60.5%. For the same compound, in test [2], the “p53 activation EC50, cherry pick confirmation” value is “inactive”; the “p53 activation EC50, primary screening” value was “inactive”; the “p53 activation efficacy, cherry pick confirmation” value was “inactive”; the “p53 activation efficacy, primary screening” value was “inactive”. Besides, in test [3], the “p53 activation EC50, cherry pick confirmation” value is “inactive”; the “p53 activation EC50, primary screening” value was “inactive”; the “p53 activation efficacy, cherry pick confirmation” value is “inactive”; the “p53 activation efficacy, primary screening” value was “inactive”. For the same compound, in test [4], the “Viability EC50, cherry pick confirmation” value was “inactive”; the “Viability EC50, primary screening” value was “inactive”; the “Viability efficacy, cherry pick confirmation” value is “inactive”; the “Viability efficacy, primary screening” value is “inactive”.
On to `Nc1ccc2cc3ccc(N)cc3nc2c1.Nc1ccc2cc3ccc(N)cc3nc2c1.O=S(=O)(O)O` [Proflavin hemisulfate], for which, in test [1], the “p53 activation efficacy, cherry pick confirmation” value stood at 364.531 and the “p53 activation efficacy, primary screening” value stood at 180.344. In test [1] (setting [9]), the EC50 is 5.5 µM. Moreover, in test [1] (setting [10]), the EC50 is 4.88 µM. In test [2], the “p53 activation EC50, cherry pick confirmation” value is “inactive”; the “p53 activation EC50, primary screening” value was “inactive”; the “p53 activation efficacy, cherry pick confirmation” value is “inactive”; the “p53 activation efficacy, primary screening” value was “inactive”. Also, in test [3], the “p53 activation EC50, cherry pick confirmation” value is “inactive”; the “p53 activation EC50, primary screening” value was “inactive”; the “p53 activation efficacy, cherry pick confirmation” value is “inactive”; the “p53 activation efficacy, primary screening” value was “inactive”. Moreover, in test [4], the “Viability EC50, cherry pick confirmation” value is “inactive”; the “Viability EC50, primary screening” value was “inactive”; the “Viability efficacy, primary screening” value was “inactive”. Further, the EC50 in test [4] (read-out: Viability EC50, cherry pick confirmation) is 17.8 µM.
For `CC(C)CP(=S)([S-])CC(C)C.[Na+]` [Sodium diisobutyldithiophosphinate], in test [1], the “p53 activation EC50, primary screening” value was “inactive”; the “p53 activation efficacy, cherry pick confirmation” value came out at 36.227; the “p53 activation efficacy, primary screening” value was “inactive”. Also, the concentration for a half-maximal effect (EC50) in test [1] (setting [9]) was found to be 2.22 µM. Besides, in test [2], the “p53 activation EC50, cherry pick confirmation” value was “inactive” and the “p53 activation efficacy, cherry pick confirmation” value was “inactive”. Further, in test [3], the “p53 activation EC50, cherry pick confirmation” value was “inactive” and the “p53 activation efficacy, cherry pick confirmation” value was “inactive”. Also, in test [4], the “Viability EC50, cherry pick confirmation” value was “inactive”; the “Viability EC50, primary screening” value was “inactive”; the “Viability efficacy, cherry pick confirmation” value was “inactive”; the “Viability efficacy, primary screening” value was “inactive”.
Regarding `CCC[CH2][Sn]([Cl])([Cl])[CH2]CCC` [Dibutyltin dichloride], in test [1], the “EC50, p53 activation, cherry pick confirmation” value is “inactive”; the “Efficacy, p53 activation, cherry pick confirmation” value was “inactive”; the “Efficacy, p53 activation, primary screening” value amounted to 73.9367. In addition, in test [1] (read-out: EC50, p53 activation, primary screening), the EC50 is 27.1 µM. Also, in test [2], the “EC50, p53 activation, cherry pick confirmation” value is “inactive”; the “EC50, p53 activation, primary screening” value was “inactive”; the “Efficacy, p53 activation, cherry pick confirmation” value is “inactive”; the “Efficacy, p53 activation, primary screening” value is “inactive”. Moreover, in test [3], the “EC50, p53 activation, cherry pick confirmation” value is “inactive”; the “EC50, p53 activation, primary screening” value was “inactive”; the “Efficacy, p53 activation, cherry pick confirmation” value was “inactive”; the “Efficacy, p53 activation, primary screening” value is “inactive”. Also, the “EC50, viability, primary screening” value in test [4] is “inactive”.
Regarding `CC[C@@]1(O)C(=O)OCc2c1cc1n(c2=O)Cc2c-1nc1ccccc1c2/C=N/OC(C)(C)C` [Gimatecan], the EC50 in test [1] (setting [5]) amounted to 0.345 µM. Also, in test [1] (setting [6]), the EC50 turned out to be 0.118 µM. For the same compound, the Emax in test [1] (setting [7]) was 257%. Also, in test [1] (setting [8]), the Emax was 118%. In test [2], the “p53 activation EC50, cherry pick confirmation” value was “inactive”; the “p53 activation EC50, primary screening” value was “inactive”; the “p53 activation efficacy, cherry pick confirmation” value is “inactive”; the “p53 activation efficacy, primary screening” value is “inactive”. Also, in test [3], the “p53 activation EC50, cherry pick confirmation” value is “inactive”; the “p53 activation EC50, primary screening” value was “inactive”; the “p53 activation efficacy, cherry pick confirmation” value is “inactive”; the “p53 activation efficacy, primary screening” value was “inactive”. In test [4], the “Viability EC50, cherry pick confirmation” value is “inactive”; the “Viability EC50, primary screening” value was “inactive”; the “Viability efficacy, cherry pick confirmation” value is “inactive”; the “Viability efficacy, primary screening” value was “inactive”.
With `NS(=O)(=O)O` [Sulfamic acid], in test [1], the “p53 activation EC50, cherry pick confirmation” value is “inactive”; the “p53 activation EC50, primary screening” value was “inactive”; the “p53 activation efficacy, cherry pick confirmation” value is “inactive”; the “p53 activation efficacy, primary screening” value was “inactive”. In test [2], the “p53 activation EC50, cherry pick confirmation” value is “inactive” and the “p53 activation efficacy, cherry pick confirmation” value was “inactive”. For the same compound, in test [2] (setting [10]), the EC50 was 24.2 µM. Further, in test [3], the “p53 activation EC50, cherry pick confirmation” value is “inactive”; the “p53 activation EC50, primary screening” value is “inactive”; the “p53 activation efficacy, cherry pick confirmation” value was “inactive”. Moreover, in test [4], the “Viability EC50, cherry pick confirmation” value is “inactive”; the “Viability EC50, primary screening” value is “inactive”; the “Viability efficacy, cherry pick confirmation” value is “inactive”; the “Viability efficacy, primary screening” value is “inactive”.
Take `CCOC(=O)CCN(SN(C)C(=O)Oc1cccc2c1OC(C)(C)C2)C(C)C` [Benfuracarb]: in test [1], the “p53 activation EC50” value was “inactive” and the p53 activation efficacy entry is “inactive”. The “p53 activation EC50” value in test [2] was “inactive”. In test [3], the “p53 activation EC50” value is “inactive”. Also, in test [4], the “Viability EC50” value is “inactive” and the Viability efficacy entry was “inactive”.
